Assay results: ChEMBL document CHEMBL4130359, “Indazole-based ligands for estrogen-related receptor α as potential anti-diabetic agents” (Eur J Med Chem, 2017)

Experiments:
Rattus norvegicus [1] = assay: Effect on COX6A2 gene expression in epididymal white adipose tissue of Zucker rat sub-chronic fa/fa prediabetic model at 10 mg/kg, po qd for 15 days by microarray analysis relative to control; format: functional
[2] = AUC (0 to 24 hrs) in Zucker rat sub-chronic fa/fa prediabetic model at 1 mg/kg, po qd for 26 days measured on day 26 post last dose; format: ADME, organism-based; set-up: time < 24 hr, dose 1 mg/kg, route oral; settings: in vivo
Rattus norvegicus [3] = assay: Toxicity in […] model assessed as serum cholesterol level at 50 mg/kg, po qd for 31 days measured on day 32 (reference value: 195 +/- 5.5 mg/dl); format: organism-based; settings: in vivo, 744 h
Rattus norvegicus [4] = assay: Effect on GBE1 gene expression in epididymal white adipose tissue of Zucker rat sub-chronic fa/fa prediabetic model at 10 mg/kg, po qd for 15 days by microarray analysis relative to control; format: functional
[5] = Cmax in Zucker rat sub-chronic fa/fa prediabetic model at 50 mg/kg, po qd measured on day 1 post dose; format: ADME, organism-based; set-up: dose 50 mg/kg, route oral; settings: in vivo
Rattus norvegicus [6] = assay: Effect on IGFBP6 gene expression in epididymal white adipose tissue of Zucker rat sub-chronic fa/fa prediabetic model at 10 mg/kg, po qd for 15 days by microarray analysis relative to control; format: functional
Rattus norvegicus [7] = assay: Toxicity in […] chronic ob/ob model assessed as brown adipose tissue weight at 10 mg/kg, po qd for 31 days measured on day 32 (reference value: 0.59 +/- 0.05 g); format: organism-based; settings: in vivo, 744 h
Rattus norvegicus [8] = assay: Effect on NFATC4 gene expression in epididymal white adipose tissue of Zucker rat sub-chronic fa/fa prediabetic model at 10 mg/kg, po qd for 15 days by microarray analysis relative to control; format: functional
Rattus norvegicus [9] = assay: Effect on PCCB gene expression in epididymal white adipose tissue of Zucker rat sub-chronic fa/fa prediabetic model at 10 mg/kg, po qd for 15 days by microarray analysis relative to control; format: functional
Rattus norvegicus [10] = species: Rattus norvegicus; assay: Toxicity in Zucker rat sub-chronic fa/fa prediabetic model assessed as increase in epididymal white adipose tissue weight during 15 day single dose study; format: organism-based; settings: in vivo, 360 h
[11] = AUC (0 to 24 hrs) in Zucker rat sub-chronic fa/fa prediabetic model at 50 mg/kg, po qd measured on day 1 post dose; format: ADME, organism-based; set-up: dose 50 mg/kg, time < 24 hr, route oral; settings: in vivo
Rattus norvegicus [12] = assay: Toxicity in Zucker rat sub-chronic fa/fa prediabetic model assessed as serum creatinine level at 1 mg/kg, po qd for 31 days measured on day 32 (reference value: 0.71 +/- 0.07 mg/dl); format: organism-based; settings: in vivo, 744 h
Rattus norvegicus [13] = assay: Effect on MED24 gene expression in epididymal white adipose tissue of Zucker rat sub-chronic fa/fa prediabetic model at 10 mg/kg, po qd for 15 days by microarray analysis relative to control; format: functional
[14] = Cmax in Zucker rat sub-chronic fa/fa prediabetic model at 50 mg/kg, po qd for 26 days measured on day 26 post last dose; format: ADME, organism-based; set-up: dose 50 mg/kg, route oral; settings: in vivo
Rattus norvegicus [15] = assay: Effect on GHR gene expression in epididymal white adipose tissue of Zucker rat sub-chronic fa/fa prediabetic model at 10 mg/kg, po qd for 15 days by microarray analysis relative to control; format: functional
Rattus norvegicus [16] = assay: Effect on CHUK gene expression in epididymal white adipose tissue of Zucker rat sub-chronic fa/fa prediabetic model at 10 mg/kg, po qd for 15 days by microarray analysis relative to control; format: functional
Rattus norvegicus [17] = assay: Toxicity in Zucker rat sub-chronic fa/fa prediabetic model assessed as body weight at 10 mg/kg, po qd for 29 days measured on day 29 post last dose (reference value: 533 +/- 10 g); format: organism-based; settings: in vivo, 696 h
Rattus norvegicus [18] = assay: Toxicity in […] chronic ob/ob model assessed as brown adipose tissue weight at 3 mg/kg, po qd for 31 days measured on day 32 (reference value: 0.59 +/- 0.05 g); format: organism-based; settings: in vivo, 744 h
Rattus norvegicus [19] = assay: Effect on SYNJ2 gene expression in epididymal white adipose tissue of Zucker rat sub-chronic fa/fa prediabetic model at 10 mg/kg, po qd for 15 days by microarray analysis relative to control; format: functional
[20] = AUC (0 to 24 hrs) in […] at 15 mg/kg administered via oral gavage by LC-MS analysis; format: ADME, organism-based; set-up: dose 15 mg/kg, time < 24 hr, route oral; settings: in vivo
[21] = Tmax in CD-1 mouse at 20 mg/kg administered via oral gavage by LC-MS analysis; format: ADME, organism-based; settings: in vivo
Rattus norvegicus [22] = assay: Toxicity in Zucker rat sub-chronic fa/fa prediabetic model assessed as serum AST level at 1 mg/kg, po qd for 31 days measured on day 32 (reference value: 187 +/- 37 U/L); format: organism-based; settings: in vivo, 744 h
Rattus norvegicus [23] = assay: Antidiabetic activity in Zucker rat sub-chronic fa/fa prediabetic model assessed as blood insulin AUC (0 to 120 min) at 1 mg/kg, po qd for 31 days measured on day 29 post dose (reference value: 1503 +/- 160 ug.min/L); format: functional, organism-based; set-up: time < 2 hr, dose 1 mg/kg
Rattus norvegicus [24] = assay: Toxicity in […] chronic ob/ob model assessed as serum triglyceride level at 3 mg/kg, po qd for 31 days measured on day 32 (reference value: 329 +/- 36 mg/dl); format: organism-based; settings: in vivo, 744 h
[25] = AUC (0 to 24 hrs) in Zucker rat sub-chronic fa/fa prediabetic model at 10 mg/kg, po qd measured on day 1 post dose; format: ADME, organism-based; set-up: time < 24 hr, dose 10 mg/kg, route oral; settings: in vivo
Rattus norvegicus [26] = assay: Antidiabetic activity in po dosed Zucker rat chronic ob/ob model assessed as reduction in HbA1c level administered once daily for 31 days measured on day 28 post dose by OGTT; format: functional, organism-based
Rattus norvegicus [27] = assay: Effect on IMPA2 gene expression in epididymal white adipose tissue of Zucker rat sub-chronic fa/fa prediabetic model at 10 mg/kg, po qd for 15 days by microarray analysis relative to control; format: functional
[28] = biological target: T1, Steroid hormone receptor ERR1 (Homo sapiens, UniProt P11474); assay: Antagonist activity at His6-tagged ERRalpha LBD (unknown origin) assessed as inhibition of GST-tagged SRC-2 co-activator peptide recruitment after 18 hrs by TR-FRET assay
T1 sequence (P11474 whole entry): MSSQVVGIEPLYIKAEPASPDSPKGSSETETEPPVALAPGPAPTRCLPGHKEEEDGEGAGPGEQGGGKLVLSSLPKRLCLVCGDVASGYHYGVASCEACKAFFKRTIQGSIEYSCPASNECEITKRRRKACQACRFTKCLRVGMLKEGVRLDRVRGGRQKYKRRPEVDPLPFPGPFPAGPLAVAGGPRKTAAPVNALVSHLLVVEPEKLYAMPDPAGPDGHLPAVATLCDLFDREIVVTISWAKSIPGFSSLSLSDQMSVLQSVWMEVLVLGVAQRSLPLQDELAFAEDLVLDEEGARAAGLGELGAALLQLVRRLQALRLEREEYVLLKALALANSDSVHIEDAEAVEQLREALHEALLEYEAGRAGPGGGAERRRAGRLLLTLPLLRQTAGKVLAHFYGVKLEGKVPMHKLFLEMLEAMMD

Rattus norvegicus [29] = assay: Toxicity in Zucker rat sub-chronic fa/fa prediabetic model assessed as triglyceride level per gram liver at 10 mg/kg, po qd for 31 days measured on day 32 (reference value: 163.4 +/- 8.3 mg); format: organism-based; settings: in vivo, 744 h

Compound: CN1CC[C@@H](N2C(=O)S/C(=C\c3ccc4c(cnn4Cc4ccc(Cl)cc4C(F)(F)F)c3)C2=O)[C@H](F)C1
- fold change (FC) (Rattus norvegicus [1]): 1.35
- AUC at 24 h [2]: 3200 ng·h/mL
- Activity (Rattus norvegicus [3]): 145 mg/dL
- fold change (FC) (Rattus norvegicus [4]): 1.79
- Cmax [5]: 8380 ng/mL
- fold change (FC) (Rattus norvegicus [6]): -1.269
- Activity (Rattus norvegicus [7]): 0.99 g
- fold change (FC) (Rattus norvegicus [8]): 1.383
- fold change (FC) (Rattus norvegicus [9]): -1.413
- Activity (Rattus norvegicus [10]): Non-Toxic
- AUC(0-t) at 24 h [11]: 92000 ng·h/mL
- Activity (Rattus norvegicus [12]): 0.66 mg/dL
- fold change (FC) (Rattus norvegicus [13]): -1.216
- Cmax [14]: 7660 ng/mL
- fold change (FC) (Rattus norvegicus [15]): 1.276
- fold change (FC) (Rattus norvegicus [16]): 1.379
- Activity (Rattus norvegicus [17]): 551 g
- Activity (Rattus norvegicus [18]): 0.61 g
- fold change (FC) (Rattus norvegicus [19]): -1.663
- AUC(0-t) at 24 h [20]: 34500 ng·h/mL
- Tmax [21]: 1.5 h
- Activity (Rattus norvegicus [22]): 158 U/L
- AUC (Rattus norvegicus [23]): 16.6 ng·h/mL
- Activity (Rattus norvegicus [24]): 223 mg/dL
- AUC(0-t) at 24 h [25]: 18100 ng·h/mL
- Activity (Rattus norvegicus [26]): Dose-dependent effect
- fold change (FC) (Rattus norvegicus [27]): 1.526
- IC50 [28]: 23 nM
- Activity (Rattus norvegicus [29]): 93 mg
